Source: US11498899B2, “Nitrone herbicides” (FMC Corporation, priority 2016, dated 2022)

What was measured:
[1] = test system: galium (catchweed bedstraw, Galium aparine); experiment: Test A postemergence, visual injury rating 0-100; assay type: in vivo; details: 0 to 100 scale
[2] = test system: wheat (Triticum aestivum); experiment: Test A postemergence, visual injury rating 0-100; assay type: in vivo; details: 0 to 100 scale
corn (Zea mays) = experiment: Test A postemergence, visual injury rating 0-100; assay type: in vivo; details: 0 to 100 scale
[3] = test system: blackgrass (Alopecurus myosuroides); experiment: Test A postemergence, visual injury rating 0-100; assay type: in vivo; details: 0 to 100 scale
[4] = test system: barnyardgrass (Echinochloa crus-galli); experiment: Test A postemergence, visual injury rating 0-100; assay type: in vivo; details: 0 to 100 scale
[5] = test system: pigweed (Amaranthus retroflexus); experiment: Test A postemergence, visual injury rating 0-100; assay type: in vivo; details: 0 to 100 scale
kochia (Kochia scoparia) [6] = experiment: Test A postemergence, visual injury rating 0-100; assay type: in vivo; details: 0 to 100 scale
[7] = test system: foxtail, green (green foxtail, Setaria viridis); experiment: Test A postemergence, visual injury rating 0-100; assay type: in vivo; details: 0 to 100 scale
[8] = test system: ragweed (common ragweed, Ambrosia elatior); experiment: Test A postemergence, visual injury rating 0-100; assay type: in vivo; details: 0 to 100 scale
[9] = test system: ryegrass, Italian (Italian ryegrass, Lolium multiflorum); experiment: Test A postemergence, visual injury rating 0-100; assay type: in vivo; details: 0 to 100 scale
[10] = test system: pigweed (Amaranthus retroflexus); experiment: Test A preemergence, visual injury rating 0-100; assay type: in vivo
kochia (Kochia scoparia) [11] = experiment: Test A preemergence, visual injury rating 0-100; assay type: in vivo
[12] = test system: foxtail, green (green foxtail, Setaria viridis); experiment: Test A preemergence, visual injury rating 0-100; assay type: in vivo
[13] = test system: ragweed (common ragweed, Ambrosia elatior); experiment: Test A preemergence, visual injury rating 0-100; assay type: in vivo
[14] = test system: ryegrass, Italian (Italian ryegrass, Lolium multiflorum); experiment: Test A preemergence, visual injury rating 0-100; assay type: in vivo
[15] = test system: barnyardgrass (Echinochloa crus-galli); experiment: Test A preemergence, visual injury rating 0-100 (0 no effect, 100 complete control); assay type: in vivo; details: for Barnyardgrass plant response rating (0 to 100 scale): 125 g ai/ha; for Barnyardgrass plant response rating: 500 g ai/ha, 0 to 100 scale
rice (Oryza sativa) = experiment: Test B flooded paddy test, visual rating 0-100 (0 no effect, 100 complete control); details: Flood, 250 g ai/ha, applied to paddy water, rated after 13 to 15 days
[16] = test system: barnyardgrass (Echinochloa crus-galli); experiment: Test B flooded paddy test, visual rating 0-100; details: Flood, 250 g ai/ha, applied to paddy water, rated after 13 to 15 days
[17] = test system: ducksalad (Heteranthera limosa); experiment: Test B flooded paddy test, visual rating 0-100; details: Flood, 250 g ai/ha, applied to paddy water, rated after 13 to 15 days

CC1=[N+]([O-])C(C(=O)Nc2ccccc2C(F)(F)F)C(c2ccc(C(F)(F)F)cc2)C1 (racemic) [Compound 33]
Galium plant response rating ([1]; 125 g ai/ha): 70
Galium plant response rating ([1]; 500 g ai/ha): 70
Wheat plant response rating ([2]; 125 g ai/ha): 0
Wheat plant response rating ([2]; 500 g ai/ha): 0
Corn plant response rating (corn (Zea mays); 125 g ai/ha): 10
Corn plant response rating (corn (Zea mays); 500 g ai/ha): 30
Blackgrass plant response rating ([3]; 125 g ai/ha): 0
Blackgrass plant response rating ([3]; 500 g ai/ha): 0
Barnyardgrass plant response rating ([4]; 125 g ai/ha): 0
Barnyardgrass plant response rating ([4]; 500 g ai/ha): 40
Pigweed plant response rating ([5]; 125 g ai/ha): 0
Pigweed plant response rating ([5]; 500 g ai/ha): 20
Kochia plant response rating (kochia (Kochia scoparia) [6]; 125 g ai/ha): 0
Kochia plant response rating (kochia (Kochia scoparia) [6]; 500 g ai/ha): 0
Foxtail, Green plant response rating ([7]; 125 g ai/ha): 0
Foxtail, Green plant response rating ([7]; 500 g ai/ha): 70
Ragweed plant response rating ([8]; 125 g ai/ha): 0
Ragweed plant response rating ([8]; 500 g ai/ha): 40
Ryegrass, Italian plant response rating ([9]; 125 g ai/ha): 0
Ryegrass, Italian plant response rating ([9]; 500 g ai/ha): 0
Pigweed plant response rating (0 to 100 scale) ([10]; 125 g ai/ha): 0
Pigweed plant response rating (0 to 100 scale) ([10]; 500 g ai/ha): 50
Kochia plant response rating (0 to 100 scale) (kochia (Kochia scoparia) [11]; 125 g ai/ha): 0
Kochia plant response rating (0 to 100 scale) (kochia (Kochia scoparia) [11]; 500 g ai/ha): 70
Foxtail, Green plant response rating (0 to 100 scale) ([12]; 125 g ai/ha): 50
Foxtail, Green plant response rating (0 to 100 scale) ([12]; 500 g ai/ha): 100
Ragweed plant response rating (0 to 100 scale) ([13]; 125 g ai/ha): 70
Ragweed plant response rating (0 to 100 scale) ([13]; 500 g ai/ha): 80
Ryegrass, Italian plant response rating (0 to 100 scale) ([14]; 125 g ai/ha): 0
Ryegrass, Italian plant response rating (0 to 100 scale) ([14]; 500 g ai/ha): 20
Barnyardgrass plant response rating (0 to 100 scale) [15]: 90
Barnyardgrass plant response rating [15]: 90
Rice plant response rating (0 to 100 scale) (rice (Oryza sativa)): 0
Barnyardgrass plant response rating (0 to 100 scale) [16]: 20
Ducksalad plant response rating (0 to 100 scale) [17]: 0

CC1=[N+]([O-])C(C(=O)Nc2cccnc2F)C(c2ccc(C(F)(F)F)cc2)C1 (racemic) [Compound 41]
Galium plant response rating ([1]; 125 g ai/ha): 60
Galium plant response rating ([1]; 500 g ai/ha): 70
Wheat plant response rating ([2]; 125 g ai/ha): 0
Wheat plant response rating ([2]; 500 g ai/ha): 30
Corn plant response rating (corn (Zea mays); 125 g ai/ha): 0
Corn plant response rating (corn (Zea mays); 500 g ai/ha): 0
Blackgrass plant response rating ([3]; 125 g ai/ha): 30
Blackgrass plant response rating ([3]; 500 g ai/ha): 50
Barnyardgrass plant response rating ([4]; 125 g ai/ha): 30
Barnyardgrass plant response rating ([4]; 500 g ai/ha): 90
Pigweed plant response rating ([5]; 125 g ai/ha): 30
Pigweed plant response rating ([5]; 500 g ai/ha): 70
Kochia plant response rating (kochia (Kochia scoparia) [6]; 125 g ai/ha): 0
Kochia plant response rating (kochia (Kochia scoparia) [6]; 500 g ai/ha): 20
Foxtail, Green plant response rating ([7]; 125 g ai/ha): 40
Foxtail, Green plant response rating ([7]; 500 g ai/ha): 80
Ragweed plant response rating ([8]; 125 g ai/ha): 0
Ragweed plant response rating ([8]; 500 g ai/ha): 40
Ryegrass, Italian plant response rating ([9]; 125 g ai/ha): 0
Ryegrass, Italian plant response rating ([9]; 500 g ai/ha): 70
Pigweed plant response rating (0 to 100 scale) ([10]; 125 g ai/ha): 90
Pigweed plant response rating (0 to 100 scale) ([10]; 500 g ai/ha): 90
Kochia plant response rating (0 to 100 scale) (kochia (Kochia scoparia) [11]; 125 g ai/ha): 0
Kochia plant response rating (0 to 100 scale) (kochia (Kochia scoparia) [11]; 500 g ai/ha): 90
Foxtail, Green plant response rating (0 to 100 scale) ([12]; 125 g ai/ha): 80
Foxtail, Green plant response rating (0 to 100 scale) ([12]; 500 g ai/ha): 100
Ragweed plant response rating (0 to 100 scale) ([13]; 125 g ai/ha): 80
Ragweed plant response rating (0 to 100 scale) ([13]; 500 g ai/ha): 100
Ryegrass, Italian plant response rating (0 to 100 scale) ([14]; 125 g ai/ha): 10
Ryegrass, Italian plant response rating (0 to 100 scale) ([14]; 500 g ai/ha): 70
Barnyardgrass plant response rating (0 to 100 scale) [15]: 90
Barnyardgrass plant response rating [15]: 100
Rice plant response rating (0 to 100 scale) (rice (Oryza sativa)): 0
Barnyardgrass plant response rating (0 to 100 scale) [16]: 20
Ducksalad plant response rating (0 to 100 scale) [17]: 80
